Values of other authors, collected in US20230354835A1, “USE OF LIQUID SMOKE IN CONJUNCTION WITH FOOD GRADE COATINGS TO CONTROL PEST INFESTATIONS” (Mississippi State University, priority 2022, published 2023).

System: Tyrophagus putrescentiae
Details: Abbar et al., 2016a; coating on ham cubes 2.5×2.5×2.5 cm^3

Q: For `CC(O)CO` (stereo not shown) [100% propylene glycol, 1,2-propanediol], which “Inhibition of mite growth on dry-cured ham cubes (in words)” value is on record?
A: Its value is “effective at inhibiting mite growth”.
